Data from EP4789666A1, “RNA M6A REGULATOR COMPOSITION, PREPARATION METHOD THEREFOR, AND USE THEREOF” (SHANGHAI MERNA THERAPEUTICS CO. LTD, priority 2023, dated 2025).
Where two headings read alike, the source gives them in different places.

Key:
[1] = Pharmacokinetic study after single topical administration of ointment to the skin of Bama miniature pigs (LC-MS/MS); type: in vivo; conditions: pig, 3% suspension ointment, 20 mg/cm^2, mean
Procedure: 2 Bama miniature pigs respectively received an ointment containing the compound of formula (I) by single topical application to the dorsal and abdominal skin at 20 mg/cm^2 (3% suspension ointment), with a total application area of 6.8% of a body surface area, and a ratio of application areas between the dorsal and abdominal skin being approximately 1:1. The plasma concentration and skin tissue homogenate concentration of the compound of formula (I) were determined by an LC-MS/MS method.

[2] = Stability test of binary mixtures of the compound of formula (I) and penetration enhancers; type: physicochemical; conditions: binary mixture 10:1, 40°C/75%RH
Procedure: Different types of penetration enhancers and the compound of formula (I) were mixed at a weight ratio of 10:1 to carry out a stability test under accelerated conditions of 40°C/75%RH. Table 15: Stability test of binary mixtures of the compound of formula (I) and penetration enhancers

[3] = Pharmacokinetic study after single topical administration of ointment to the skin of CD-1 mice (LC-MS/MS); type: in vivo; conditions: 3% suspension ointment
Procedure: 6 CD-1 mice were divided into 2 groups, with 3 mice per group, and then respectively received an ointment containing the compound of formula (I) by single topical administration to the backs at 1 mg/cm^2 (3% suspension ointment) with an application area of 1 cm^2. The plasma concentration and skin tissue homogenate concentration of the compound of formula (I) were determined by an LC-MS/MS method.

[4] = dorsal skin tissue homogenate, 1 mg/cm^2, mean
[5] = mouse, topical or ocular, plasma, 1 mg/cm^2, mean

**Q.** With `NC(=O)[C@H]1CCCc2c1[nH]c1ccc(Cl)cc21` [Compound of formula (I), (S)-6-chloro-2,3,4,9-tetrahydro-1H-carbazole-carboxamide] as the compound, how does the concentration at 24 h ([1]; read-out: Drug concentration in dorsal dermis skin tissues at 24 h) read?
**A.** 88300 ng/g

**Q.** And the concentration at 24 h ([1]; abdominal skin tissue, read-out: Drug concentration in abdominal skin tissues at 24 h)?
**A.** 111000 ng/g

**Q.** And the concentration at 24 h ([1]; plasma, read-out: Plasma drug concentration at 24 h)?
**A.** 17.7 ng/mL

**Q.** And the AUC(0-t) ([1]; topical or ocular, plasma)?
**A.** 304 ng·h/mL

**Q.** What about the Cmax ([1]; topical or ocular, plasma) of the same compound?
**A.** 21.6 ng/mL

**Q.** And the MRT inf ([1]; topical or ocular, plasma)?
**A.** 15.2 h

**Q.** What about the Tmax ([1]; topical or ocular, plasma) of the same compound?
**A.** 16 h

**Q.** And the “stability in diisopropyl oxalate” value [2]?
**A.** unstable

**Q.** What about the “stability in propylene carbonate” value [2] of the same compound?
**A.** unstable

**Q.** What about the “Plasma drug concentration at 24 h” value ([3]; 1 mg/cm^2) of the same compound?
**A.** Below a lower detection limit

**Q.** What about the “Drug concentration in skin tissues at 4 h” value [3, 4] of the same compound?
**A.** 33,033 ng/g

**Q.** What about the “Drug concentration in skin tissues at 24 h” value [3, 4] of the same compound?
**A.** 7,907 ng/g

**Q.** What about the concentration at 4 h ([3]; mouse, dorsal skin tissue homogenate, 1 mg/cm^2, mean, read-out: Drug concentration in skin tissues at 4 h) of the same compound?
**A.** 33000 ng/g

**Q.** And the concentration at 24 h ([3]; mouse, dorsal skin tissue homogenate, 1 mg/cm^2, mean, read-out: Drug concentration in skin tissues at 24 h)?
**A.** 7910 ng/g

**Q.** What about the concentration at 4 h ([3]; mouse, plasma, 1 mg/cm^2, mean, read-out: Plasma drug concentration at 4 h) of the same compound?
**A.** 6.15 ng/mL

**Q.** What about the Cmax ([3]; mouse, topical or ocular, plasma, 1 mg/cm^2, 1 cm^2, mean) of the same compound?
**A.** 14 ng/mL

**Q.** And the AUC(0-inf) [3, 5]?
**A.** 57.5 ng·h/mL

**Q.** What about the AUC(0-t) [3, 5] of the same compound?
**A.** 40.7 ng·h/mL

**Q.** What about the MRT inf [3, 5] of the same compound?
**A.** 5.54 h

**Q.** And the Tmax [3, 5]?
**A.** 1.67 h

**Q.** And the half-life [3, 5]?
**A.** 309 min

**Q.** What about the “AUC Extr” value ([3]; plasma, 1 mg/cm^2, mean) of the same compound?
**A.** 18.9%

**Q.** What about the AUCInf/Dose ([3]; plasma, 1 mg/cm^2, mean) of the same compound?
**A.** 1.63 kg·ng·h/mL/mg
